From patent publication US10336739B2, “4-hydroxy-3-(heteroaryl)pyridine-2-one APJ agonists” (BRISTOL-MYERS SQUIBB COMPANY, priority 2015, dated 2019)
Read-outs that look alike come from different tables or passages of the source.

Molecular target: human APJ receptor (Homo sapiens (Human), UniProt P35414)
Assay: Intracellular cAMP accumulation assay (APJ hcAMP, HTRF)
Assay type: cell-based
Details: HEK293 cells stably expressing human APJ receptor, inhibition of forskolin-mediated cAMP production
Outline: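 HEK293 cells stably expressing human APJ, 5,000 per well, exposed to compound with […] IBMX and 2 μM forskolin for 30 minutes at room temperature. cAMP measured by HTRF after lysis and 60 min detection incubation. EC50 from sigmoidal variable-slope fits of inhibition of forskolin-induced cAMP, quantified against a cAMP standard curve.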

[1] = read-out: hAPJ cAMP EC50 Potency range
[2] = read-out: Human APJ cAMP EC50 Potency range

Sequence of human APJ receptor (P35414 whole entry): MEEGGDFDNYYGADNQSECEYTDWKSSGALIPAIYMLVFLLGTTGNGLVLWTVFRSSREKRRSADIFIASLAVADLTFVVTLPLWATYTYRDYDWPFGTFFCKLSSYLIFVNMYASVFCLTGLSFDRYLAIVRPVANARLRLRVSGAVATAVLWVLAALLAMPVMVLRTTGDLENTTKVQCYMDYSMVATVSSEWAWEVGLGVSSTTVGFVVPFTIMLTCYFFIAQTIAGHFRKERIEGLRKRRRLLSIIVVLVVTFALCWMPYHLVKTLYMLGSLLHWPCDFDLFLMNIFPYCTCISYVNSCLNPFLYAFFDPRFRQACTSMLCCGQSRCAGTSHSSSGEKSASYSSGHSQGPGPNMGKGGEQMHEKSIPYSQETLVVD

EC50 [1] [nM]	Structure (SMILES)	other results
10 to 100	COc1cccc(OC)c1-c1c(C2CC2)[nH]c(=O)c(-c2nnc(Cc3ccc(Cl)cc3)o2)c1O [Example 93, 3-{5-[(4-chlorophenyl)methyl]-1,3,4-oxadiazol-2-yl}-6-cyclopropyl-5-(2,6-dimethoxyphenyl) pyridine-2,4-diol]	
100 to 300	CCCCc1nc(O)c(-c2nnc(Cc3ccccc3)o2)c(O)c1-c1c(OC)cc(C)cc1OC [Example 2, 3-(5-benzyl-1,3,4-oxadiazol-2-yl)-6-butyl-5-(2,6-dimethoxy-4-methylphenyl) pyridine-2,4-diol]	
0.01 to 10	CCCCc1nc(O)c(-c2nnc(CN(C)C(=O)c3ccccc3)o2)c(O)c1-c1c(OC)cccc1OC [Example 172, N-({5-[6-butyl-5-(2,6-dimethoxyphenyl)-2,4-dihydroxypyridin-3-yl]-1,3,4-oxadiazol-2-yl}methyl)-N-methylbenzamide]	
0.01 to 10	CCOCc1nc(O)c(-c2nnc(Cc3ccc(C)c(F)c3)o2)c(O)c1-c1c(OC)cccc1OC [Example 126, 5-(2,6-dimethoxyphenyl)-6-(ethoxymethyl)-3-{5-[(3-fluoro-4-methylphenyl)methyl]-1,3,4-oxadiazol-2-yl}pyridine-2,4-diol]	
10 to 100	CCCCc1nc(O)c(-c2nnc(Cc3ccccc3OC)o2)c(O)c1-c1c(OC)cccc1OC [Example 6, 6-butyl-5-(2,6-dimethoxyphenyl)-3-{5-[(2-methoxyphenyl)methyl]-1,3,4-oxadiazol-2-yl}pyridine-2,4-diol]	

More lines, now with the values behind:

Structure (SMILES)	EC50 [1] [nM]	other results
CCCCc1nc(O)c(-c2nnc(Cc3ccc(F)c(C(F)(F)F)c3)o2)c(O)c1-c1c(OC)cccc1OC [Example 34, 6-butyl-5-(2,6-dimethoxyphenyl)-3-(5-{[4-fluoro-3-(trifluoromethyl)phenyl]methyl}-1,3,4-oxadiazol-2-yl)pyridine-2,4-diol]	10 to 100	
CCCCc1nc(O)c(-c2nnc(Cc3ccc(Cl)cc3)o2)c(O)c1-c1c(OC)ccc(F)c1OC (single isomer, unassigned) [Example 218, 6-butyl-3-{5-[(4-chlorophenyl)methyl]-1,3,4-oxadiazol-2-yl}-5-(3-fluoro-2,6-dimethoxyphenyl)pyridine-2,4-diol]		EC50 [2]: 10 to 100 nM
CCCCc1nc(O)c(-c2nnc(C(C)(C)c3ccc(Cl)c(Cl)c3)o2)c(O)c1-c1c(OC)cccc1OC [Example 62, 6-butyl-3-{5-[2-(3,4-dichlorophenyl)propan-2-yl]-1,3,4-oxadiazol-2-yl}-5-(2,6-dimethoxyphenyl) pyridine-2,4-diol]	0.01 to 10	
CCOCc1nc(O)c(-c2nnc(Cn3ccccc3=O)o2)c(O)c1-c1c(OC)cc(F)cc1OC [Example 212, 1-({5-[6-(ethoxymethyl)-5-(4-fluoro-2,6-dimethoxyphenyl)-2,4-dihydroxypyridin-3-yl]-1,3,4-oxadiazol-2-yl}methyl)-1,2-dihydropyridin-2-one]		EC50 [2]: 10 to 100 nM
CCOCc1nc(O)c(-c2nnc(Cc3ccc(Cl)cc3)o2)c(O)c1-c1c(OC)cncc1OC [Example 217, 3-{5-[(4-chlorophenyl)methyl]-1,3,4-oxadiazol-2-yl}-5-(3,5-dimethoxypyridin-4-yl)-6-(ethoxymethyl)pyridine-2,4-diol]		EC50 [2]: 10 to 100 nM
CCCCc1nc(O)c(-c2nnc(CC(=O)Nc3ccc(OC)cc3)o2)c(O)c1-c1c(OC)cccc1OC [Example 183, 2-{5-[6-butyl-5-(2,6-dimethoxyphenyl)-2,4-dihydroxypyridin-3-yl]-1,3,4-oxadiazol-2-yl}-N-(4-methoxyphenyl) acetamide]	10 to 100	
CCCCc1nc(O)c(-c2nnc(CC(=O)NCc3ccccc3Cl)o2)c(O)c1-c1c(OC)cccc1OC [Example 265, 2-{5-[6-butyl-5-(2,6-dimethoxyphenyl)-2,4-dihydroxy-pyridin-3-yl]-1,3,4-oxadiazol-2-yl}-N-[(2-chlorophenyl)methyl]acetamide]		EC50 (read-out: hAPJ cAMP EC50 (nM) Potency range): 0.01 to 10 nM
CCCCc1nc(O)c(-c2nnc(CN)o2)c(O)c1-c1c(OC)cccc1OC [Example 170, 3-[5-(aminomethyl)-1,3,4-oxadiazol-2-yl]-6-butyl-5-(2,6-dimethoxyphenyl) pyridine-2,4-diol]	10 to 100	
